Measurements as given in the supplement of paper PMC10307832.

Key:
Assay in all cases: relative viability (nuclei count vs DMSO), 5 days (fraction); higher = more cells survive
[1] = compound: CC1CC(=O)N(C2=CN=C(N=C2N1C3CCCC3)NC4=C(C=C(C=C4)C(=O)NC5CCN(CC5)C)OC)C [NPK76-II-72-1] + CC(=O)c1c(C)c2cnc(Nc3ccc(N4CCNCC4)cn3)nc2n(C2CCCC2)c1=O [Palbociclib] (partner 0.5 µM)
Procedure, shortened: (§1)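 Each reported value is a median over duplicate plates. It expresses relative viability: treated-well nuclei count divided by vehicle-well nuclei count. Lung cancer cell lines in 1536-well plates were dosed by pin tool a day after seeding, alone with one drug or with a fixed anchor-drug dose plus five library-drug doses (not always all listed) in √10 steps, and nuclei were counted after 5 days.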

BI-2536 + Vorinostat = compound: CC[C@@H]1C(=O)N(C)c2cnc(Nc3ccc(C(=O)NC4CCN(C)CC4)cc3OC)nc2N1C1CCCC1 [BI-2536] + O=C(CCCCCCC(=O)Nc1ccccc1)NO [Vorinostat] (partner 1 µM)
Procedure, shortened: as §1

[2] = compound: CC1CC(=O)N(C2=CN=C(N=C2N1C3CCCC3)NC4=C(C=C(C=C4)C(=O)NC5CCN(CC5)C)OC)C [NPK76-II-72-1] + C[C@@H](Oc1cc(-c2cnn(C3CCNCC3)c2)cnc1N)c1c(Cl)ccc(F)c1Cl [Crizotinib] (partner 1 µM)
Procedure, shortened: as §1

BI-2536 + Bortezomib = compound: CC[C@@H]1C(=O)N(C)c2cnc(Nc3ccc(C(=O)NC4CCN(C)CC4)cc3OC)nc2N1C1CCCC1 [BI-2536] + CC(C)C[C@H](NC(=O)[C@H](Cc1ccccc1)NC(=O)c1cnccn1)B(O)O [Bortezomib] (partner 0.002 µM)
Procedure, shortened: as §1

Row | Cell Line | relative viability ([1]; first compound 0.01 µM) | relative viability ([1]; first compound 0.03162 µM) | relative viability ([1]; first compound 0.1 µM) | relative viability ([1]; first compound 0.3162 µM) | relative viability ([1]; first compound 1 µM) | relative viability (BI-2536 + Vorinostat; first compound 0.01 µM) | relative viability (BI-2536 + Vorinostat; first compound 0.03162 µM) | relative viability (BI-2536 + Vorinostat; first compound 0.1 µM) | relative viability (BI-2536 + Vorinostat; first compound 0.3162 µM) | relative viability (BI-2536 + Vorinostat; first compound 1 µM) | relative viability ([2]; first compound 0.01 µM) | relative viability ([2]; first compound 0.03162 µM) | relative viability ([2]; first compound 0.3162 µM) | relative viability ([2]; first compound 1 µM) | relative viability (BI-2536 + Bortezomib; first compound 0.01 µM) | relative viability (BI-2536 + Bortezomib; first compound 0.03162 µM) | relative viability (BI-2536 + Bortezomib; first compound 0.1 µM) | relative viability (BI-2536 + Bortezomib; first compound 0.3162 µM) | relative viability (BI-2536 + Bortezomib; first compound 1 µM) | relative viability ([2]; first compound 0.1 µM)
1 | NCI-H647 | 0.31 | 0.351 | 0.424 | 0.362 | 0.506 | 0.526 | 0.372 | 0.236 | 0.086 | 0.0837 | 1.06 | 1.15 | 0.966 | 1.06 | 0.799 | 0.888 | 0.457 | 0.0877 | 0.087 | 
2 | NCI-H650 | 0.332 | 0.366 | 0.3 | 0.303 | 0.356 | 0.418 | 0.479 | 0.145 | 0.154 | 0.128 | 0.799 | 0.865 |  | 0.825 | 0.73 | 0.563 | 0.233 | 0.19 | 0.126 | 0.629
3 | NCI-H661 | 0.424 | 0.37 | 0.418 | 0.346 | 0.435 | 0.714 | 0.323 | 0.292 | 0.302 | 0.306 | 0.873 | 0.937 |  | 0.995 | 0.959 | 0.868 | 0.727 | 0.191 | 0.257 | 0.982
4 | NCI-H727 | 0.705 | 0.671 | 0.594 | 0.621 | 0.712 | 1.12 | 1.11 | 0.797 | 0.513 | 0.4 | 0.703 | 0.768 | 0.668 | 0.889 | 0.807 | 0.833 | 0.656 | 0.267 | 0.239 | 0.906
5 | NCI-H838 | 0.209 | 0.2 | 0.217 | 0.228 | 0.228 | 0.766 | 0.668 | 0.371 | 0.152 | 0.141 | 0.865 | 0.952 | 0.734 | 0.848 | 0.878 | 0.824 | 0.16 | 0.115 | 0.111 | 0.823
6 | NCI-H1355 | 0.377 | 0.427 | 0.397 | 0.383 | 0.439 | 0.584 | 0.66 | 0.37 | 0.171 | 0.152 | 0.858 | 1.06 | 0.841 | 1.16 | 1.21 | 1.21 | 0.874 | 0.303 | 0.184 | 1.13
7 | NCI-H1437 | 0.31 | 0.311 | 0.292 | 0.272 | 0.3 | 0.809 | 0.751 | 0.394 | 0.301 | 0.312 | 0.843 | 0.956 | 0.746 | 0.967 | 0.543 | 0.463 | 0.416 | 0.136 | 0.089 | 0.834
8 | NCI-H1650 | 0.314 | 0.428 | 0.458 | 0.31 | 0.407 | 0.624 | 0.555 | 0.276 | 0.169 | 0.142 | 1.01 | 1.07 | 0.917 | 1.11 | 0.198 | 0.195 | 0.18 | 0.18 | 0.171 | 0.861
9 | NCI-H1651 | 0.512 | 0.535 | 0.483 | 0.48 | 0.558 | 0.492 | 0.553 | 0.328 | 0.123 | 0.0939 | 0.885 | 0.881 | 0.881 | 0.868 | 0.898 | 0.98 | 0.894 | 0.583 | 0.11 | 0.871
10 | NCI-H1666 | 0.64 | 0.62 | 0.652 | 0.6 | 0.67 | 0.984 | 1.03 | 1.03 | 0.504 | 0.49 | 0.855 | 1.03 | 0.917 | 1.09 | 0.681 | 0.874 | 0.332 | 0.251 | 0.308 | 0.92
11 | NCI-H1734 | 0.328 | 0.348 | 0.345 | 0.321 | 0.384 | 0.734 | 0.543 | 0.17 | 0.165 | 0.169 | 0.703 | 0.666 | 0.642 | 0.736 | 0.84 | 0.82 | 0.226 | 0.154 | 0.156 | 0.727
12 | NCI-H1755 | 0.453 | 0.441 | 0.464 | 0.453 | 0.479 | 0.833 | 0.595 | 0.426 | 0.34 | 0.329 | 0.866 | 0.864 | 0.837 | 0.939 | 0.9 | 0.891 | 0.355 | 0.308 | 0.262 | 0.838
13 | NCI-H1915 | 0.508 | 0.606 | 0.529 | 0.502 | 0.536 | 0.464 | 0.478 | 0.295 | 0.0928 | 0.0626 | 0.87 | 0.969 | 0.891 | 0.876 | 1.02 | 0.965 | 0.613 | 0.439 | 0.0752 | 0.874
14 | NCI-H1975 | 0.548 | 0.548 | 0.593 | 0.416 | 0.676 | 0.727 | 0.593 | 0.326 | 0.181 | 0.158 | 0.939 | 0.965 | 0.876 | 0.95 | 0.318 | 0.248 | 0.243 | 0.144 | 0.117 | 0.914
15 | NCI-H1993 | 0.629 | 0.647 | 0.616 | 0.563 | 0.682 | 0.665 | 0.425 | 0.456 | 0.489 | 0.416 | 0.912 | 0.839 | 0.722 | 0.977 | 1.2 | 1 | 0.536 | 0.696 | 0.646 | 0.791
16 | NCI-H2009 | 0.178 | 0.195 | 0.213 | 0.262 | 0.2 | 0.745 | 0.689 | 0.373 | 0.193 | 0.152 | 0.915 | 1.12 | 1.01 | 1.15 | 1.02 | 0.916 | 0.413 | 0.156 | 0.108 | 0.974
17 | NCI-H2023 | 0.365 | 0.385 | 0.343 | 0.341 | 0.439 | 0.684 | 0.549 | 0.154 | 0.0827 | 0.0741 | 0.655 | 0.571 | 0.508 | 0.733 | 0.943 | 0.87 | 0.193 | 0.0834 | 0.0889 | 0.648
18 | NCI-H2085 | 0.475 | 0.445 | 0.464 | 0.489 | 0.491 | 0.855 | 0.77 | 0.469 | 0.231 | 0.304 | 0.864 | 0.962 | 0.778 | 1.01 | 1.05 | 1.01 | 0.587 | 0.371 | 0.381 | 1.03
19 | NCI-H2087 | 0.236 | 0.255 | 0.242 | 0.22 | 0.254 | 0.731 | 0.773 | 0.229 | 0.0706 | 0.124 | 0.844 | 0.786 | 0.902 | 1.01 | 0.858 | 0.677 | 0.693 | 0.128 | 0.139 | 0.82
20 | NCI-H2126 | 0.338 | 0.348 | 0.331 | 0.347 | 0.345 | 0.8 | 0.832 | 0.243 | 0.218 | 0.177 | 1.02 | 1.07 | 1.01 | 1.06 | 1.19 | 1.1 | 1.05 | 0.636 | 0.227 | 0.965
21 | NCI-H2228 | 0.759 | 0.912 | 0.729 | 0.6 | 0.747 | 0.823 | 0.468 | 0.106 | 0.134 | 0.0804 | 0.404 | 0.611 | 0.39 | 0.711 | 1.13 | 0.911 | 0.16 | 0.198 | 0.187 | 0.48
22 | NCI-H2347 | 0.388 | 0.425 | 0.389 | 0.433 | 0.465 | 0.509 | 0.591 | 0.456 | 0.436 | 0.336 | 0.742 | 0.698 | 0.718 | 0.944 | 0.864 | 0.963 | 0.859 | 0.482 | 0.476 | 0.715
23 | NCI-H2405 | 0.528 | 0.554 | 0.514 | 0.514 | 0.561 | 0.981 | 0.608 | 0.35 | 0.278 | 0.337 | 0.863 | 0.951 | 0.798 | 0.855 | 0.829 | 1.04 | 0.588 | 0.632 | 0.723 | 0.816
24 | NCI-H3122 | 0.183 | 0.18 | 0.179 | 0.194 | 0.213 | 0.928 | 0.779 | 0.179 | 0.149 | 0.151 | 0.268 | 0.272 | 0.294 | 0.329 | 0.982 | 1.01 | 0.43 | 0.231 | 0.242 | 0.282
25 | PC-3 [JPC-3] | 0.562 |  | 0.519 | 0.549 | 0.597 | 0.857 | 0.677 | 0.416 | 0.306 | 0.291 | 0.943 | 0.958 | 0.938 | 0.995 | 0.799 | 0.93 | 0.834 | 0.5 | 0.233 | 0.998
26 | PC-14 | 0.514 | 0.593 | 0.438 | 0.505 | 0.545 | 0.809 | 0.387 | 0.0698 | 0.0322 | 0.0218 | 0.872 | 0.944 | 0.809 | 1.03 | 0.851 | 0.835 | 0.665 | 0.0691 | 0.0558 | 0.904
